Test results as given in PMC3539664, “Convergent synthesis and evaluation of ^18F-labeled azulenic COX2 probes for cancer imaging” (Frontiers in Oncology, 2013).
“Also recorded” adds a separate entry of the source.

How the values were obtained:
C57MG tumors = assay: In vivo microPET/CT imaging of COX2 in tumor-bearing mouse model; parameters: species or system mice
Method: The experimental protocol for animal imaging was approved by the Vanderbilt Medical Center Institutional Animal Care and Use Committee. Nude mice 6–8 weeks of age (n = 8, from Jackson Laboratory, Bar Harbor, ME, USA) were implanted subcutaneously under anesthesia (isoflurane mixed […]) with 1.0 × 10^6 C57MG cells in the mammary fat pad. The progress of tumor growth was monitored via every-other-day measurement of tumor size and animal weight. When the tumors reached approximately 4 mm in diameter, in vivo PET imaging was performed.
Positron emission tomography imaging was performed using the microPET Focus 220 (Siemens Pre-clinical, Knoxville, TN, USA) in a static acquisition mode for 30 min at 60, 120, and 150 min after injection of ^18F-COX2 probe 13 (150–200 μCi, 100–130 μL) into awake, non-fasted mice (n = 8) via the tail vein. To obtain whole-body scans, mice were placed in a supine position. The data were acquired in a 3-D mode with an axial span of approximately 8 cm. During the scanning, the animals were anesthetized using isoflurane and the temperature inside the scanner was maintained at 30°C using a pad connected to a circulating warm water bath. After PET imaging, a CT image was acquired using the microCAT II (Siemens Pre-clinical, Knoxville, TN, USA) using the same animal holder with the subjects maintained under anesthesia throughout, and then the mice were immediately euthanized upon completion of the CT scan. PET images were reconstructed using the iterative MAP reconstruction algorithm with 18 iterations and a beta smoothing value of 0.001 into 128 × 128 × 95 slices with a voxel size of 0.475 mm × 0.475 mm × 0.796 mm. The PET and CT images were co-registered using the imaging tool AMIDE ([Loening and Gambhir, 2003]).

[1] = Biodistribution by gamma counting of tissues after imaging; format: in vivo; settings: non-fasted tumor-bearing mice (n = 3), 150 min post injection (Figure 5)
Excerpt: After the imaging session, the mice were euthanized and hearts, muscles, blood, livers, spleens, kidneys, stomachs, brains, intestines, tumors, and lungs were retrieved. The tissues were weighed and assessed for ^18F radioactivity using a gamma counter (CRC-15W, Capintec, Ramsey, NJ, USA).

Cc1csc(Cc2c3cccccc-3c(C(=O)c3ccc([18F])cc3)c2C)n1 [compound 13]
Hepatic uptake of the probe (PET) (C57MG tumors; non-fasted C57MG tumor-bearing mice, i.v., PET imaging): predominant hepatic uptake | Bone signal / in vivo defluorination (PET) (C57MG tumors; non-fasted C57MG tumor-bearing mice, i.v., up to 2.5 h post injection): negligible signal in the bone; also recorded: no defluorination of the probe in vivo | Tumor accumulation and retention of the probe (PET, PET/CT) (C57MG tumors; non-fasted nude mice with C57MG mammary fat pad tumors, i.v. tail vein, static whole-body scan 150 min after administration, vs background p < 0.05): significant accumulation in the tumor | Biodistribution: tissue uptake (% injection dose/g tissue) [1]: the probe accumulated in the tumor; also recorded: highest uptake was detected in the liver, followed by the intestine
